The experiment concerns the target T1, catalytic domain of human JAK2 (Homo sapiens, UniProt O60674).
T1 construct: the catalytic domain of human JAK2
The experiment is described as follows: Inhibition of JAK2 activity (Z'-Lyte Kinase Assay kit-Tyr 6 Peptide). In kind it is biochemical. How it is done: The inhibition of JAK2 kinase activity was determined in 384-well assay microplates using the Z′-Lyte® Kinase Assay kit-Tyr 6 Peptide kit, supplied by Invitrogen (Ref: PV4122), following the manufacturer's instructions.
In a final volume of 10 μL per well, 2.5 μL of the product to be tested dissolved in 4% DMSO (final concentration of the product to be tested, 0.1-10000 nM) was incubated with 0.5 μg/well of the catalytic domain of human JAK2, 2 μM of the substrate peptide Z′-Lyte® Tyr 6 and 16 μM of ATP; all components were dissolved in 50 mM pH 7.5 Hepes buffer, 10 mM Magnesium chloride (II), 1 mM EGTA and 0.01% Brij® 35. The reaction was started by the addition of said 16 μM ATP; after incubation for 1 hour at 25° C., 5 μL of A Z′-Lyte® Tyr 6 development reagent was added and the mixture was incubated for 1 hour at 25° C. Phosphorylation was then quantified in each well using a Safire2® fluorescence microplate reader from Tecan.

T1 sequence (O60674 849-1124 limits assumed): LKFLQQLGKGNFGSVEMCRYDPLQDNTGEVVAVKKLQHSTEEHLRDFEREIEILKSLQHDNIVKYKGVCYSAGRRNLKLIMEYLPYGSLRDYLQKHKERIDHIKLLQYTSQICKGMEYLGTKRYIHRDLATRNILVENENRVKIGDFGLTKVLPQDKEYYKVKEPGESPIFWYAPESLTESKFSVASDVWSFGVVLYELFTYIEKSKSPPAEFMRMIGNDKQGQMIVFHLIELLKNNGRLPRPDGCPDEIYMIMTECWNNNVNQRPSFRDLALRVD

By inhibition is commonly meant the percentage by which the read-out fell short of the control. High values mean a response far below the control, low ones a response near the control. As for `O=c1[nH]c2cnc(-c3cnn4ccccc34)nc2n1C1CCOCC1` [Example 3, 2-(Pyrazolo[1,5-a]pyridin-3-yl)-9-(tetrahydro-2H-pyran-4-yl)-7H-purin-8(9H)-one], the inhibition at 1 µM was over 50%.

In turn, `CC(C)(C)OC(=O)N1CCC[C@H](n2c(=O)[nH]c3cnc(-c4cnn5ccccc45)nc32)C1` [Example 3b, (S)-tert-butyl 3-(8-oxo-2-(pyrazolo[1,5-a]pyridin3-yl)-7H-purin-9(8H)-yl)piperidine-1-carboxylate] had an inhibition at 1 µM of over 50%.

`O=c1[nH]c2cnc(-c3cnn4ccccc34)nc2n1C1CCOc2c(F)cccc21` (centres unmarked) [Example 3d, 9-(8-fluorochroman-4-yl)-2-(pyrazolo[1,5-a]pyridin-3-yl)-7H-purin-8(9H)-one]: the inhibition at 1 µM was over 50%.

On to `COC(=O)[C@H](C)n1c(=O)[nH]c2cnc(-c3cnn4ccccc34)nc21` [Example 3e, methyl (2S)-2-(8-oxo-2-(pyrazolo[1,5-a]pyridin-3-yl)-7,8-dihydro-9H-purin-9-yl)propanoate], for which the inhibition at 1 µM is over 50%.

Turning to `Cn1c(=O)n(C2CCOc3c(F)cccc32)c2nc(-c3cnn4ccccc34)ncc21` (centres unmarked) [Example 4c, 9-(8-fluorochroman-4-yl)-7-methyl-2-(pyrazolo[1,5-a]pyridin-3-yl)-7H-purin-8(9H)-one], the inhibition at 1 µM was over 50%.

`Cn1c(=O)n([C@H]2CCCN(C(=O)OC(C)(C)C)C2)c2nc(-c3cnn4ccccc34)ncc21` [Example 5, (S)-tert-Butyl 3-(7-methyl-8-oxo-2-(pyrazolo[1,5-a]pyridine-3-yl)-7H-purin-9(8H)-yl)piperidine-1-carboxylate] came in with an inhibition at 1 µM of over 50%.

`Cn1c(=O)n(C2CCOCC2)c2nc(-c3cnn4ccccc34)ncc21` [Example 5a, 7-methyl-2-(pyrazolo[1,5-a]pyridin-3-yl)-9-(tetrahydro-2H-pyran-4-yl)-7H-purin-8(9H)-one]: the inhibition at 1 µM was over 50%.

In turn, `Cn1c(=O)n(C2CCOCC2)c2nc(-c3cnn4ccc(C#N)cc34)ccc21` [Example 5b, 3-(1-methyl-2-oxo-3-(tetrahydro-2H-pyran-4-yl)-2,3-dihydro-1H-imidazo[4,5-b]pyridin-5-yl)pyrazolo[1,5-a]pyridine-5-carbonitrile] had an inhibition at 1 µM of over 50%.

In the case of `Cn1c(=O)n(C2CCC(F)(F)CC2)c2nc(-c3cnn4ccc(C#N)cc34)ncc21` [Example 5e, 3-(9-(4,4-difluorocyclohexyl)-7-methyl-8-oxo-8,9-dihydro-7H-purin-2-yl)pyrazolo[1,5-a]pyridine-5-carbonitrile], the inhibition at 1 µM was over 50%.

In turn, `Cn1c(=O)n(C2CCS(=O)(=O)C2)c2nc(-c3cnn4ccc(C#N)cc34)ncc21` (centres unmarked) [Example 5f, 3-(9-(1,1-dioxotetrahydrothien-3-yl)-8,9-dihydro-7-methyl-8-oxopurin-2-yl)pyrazolo[1,5-a]pyridine-5-carbonitrile] registered an inhibition at 1 µM of over 50%.

`Cn1c(=O)n(Cc2ccccc2F)c2nc(-c3cnn4ccc(C#N)cc34)ncc21` [Example 5h, 3-(9-(2-fluorobenzyl)-7-methyl-8-oxo-8,9-dihydro-7H-purin-2-yl)pyrazolo[1,5-a]pyridine-5-carbonitrile] showed an inhibition at 1 µM of over 50%.

On to `CC(=O)N1CCC(n2c(=O)n(C)c3cnc(-c4cnn5ccc(C(F)(F)F)cc45)nc32)CC1` [Example 5i, 9-(1-acetylpiperidin-4-yl)-7-methyl-2-(5-(trifluoromethyl)pyrazolo[1,5-a]pyridin-3-yl)-7H-purin-8(9H)-one], for which the inhibition at 1 µM is over 50%.

In turn, `N#CCC(=O)N1CCC[C@H](n2c(=O)[nH]c3ccc(-c4cnn5ccccc45)nc32)C1` [Example 7p, (S)-3-oxo-3-(3-(2-oxo-5-(pyrazolo[1,5-a]pyridin-3-yl)-1H-imidazo[4,5-b]pyridin-3(2H)-yl)piperidin-1-yl)propanenitrile] returned an inhibition at 1 µM of over 50%.

Molecule `CC(C)C(=O)N1CCC[C@H](n2c(=O)[nH]c3ccc(-c4cnn5ccccc45)nc32)C1` [Example 8d, (S)-3-(1-isobutyrylpiperidin-3-yl)-5-(pyrazolo[1,5-a]pyridin-3-yl)-1H-imidazo[4,5-b]pyridin-2(3H)-one] yielded an inhibition at 1 µM of over 50%.

Take `CS(=O)(=O)N1CCC[C@H](n2c(=O)[nH]c3cnc(-c4cnn5ccccc45)nc32)C1` [Example 9a, (S)-9-(1-(methylsulfonyl)piperidin-3-yl)-2-(pyrazolo[1,5-a]pyridin-3-yl)-7H-purin-8(9H)-one]: the inhibition at 1 µM is over 50%.

`CCCS(=O)(=O)N1CCC[C@H](n2c(=O)[nH]c3cnc(-c4cnn5ccc(C#N)cc45)nc32)C1` [Example 9b, (S)-3-(8-oxo-9-(1-(propylsulfonyl)piperidin-3-yl)-8,9-dihydro-7H-purin-2-yl)pyrazolo[1,5-a]pyridine-5-carbonitrile] displayed an inhibition at 1 µM of over 50%.

The molecule `N#Cc1ccn2ncc(-c3ncc4[nH]c(=O)n([C@H]5CCCN(S(=O)(=O)CC(F)(F)F)C5)c4n3)c2c1` [Example 9c, (S)-3-(8-oxo-9-(1-(2,2,2-trifluoroethylsulfonyl)piperidin-3-yl)-8,9-dihydro-7H-purin-2-yl)pyrazolo[1,5-a]pyridine-5-carbonitrile] returned an inhibition at 1 µM of over 50%.

As for `Cn1c(=O)n([C@H]2CCCN(S(C)(=O)=O)C2)c2nc(-c3cnn4ccccc34)ccc21` [Example 9f, (S)-1-methyl-3-(1-(methylsulfonyl)piperidin-3-yl)-5-(pyrazolo[1,5-a]pyridin-3-yl)-1H-imidazo[4,5-b]pyridin-2(3H)-one], the inhibition at 1 µM is over 50%.

In turn, `Cc1ccn2ncc(-c3ncc4[nH]c(=O)n([C@H]5CCCN(S(C)(=O)=O)C5)c4n3)c2c1` [Example 9g, (S)-2-(5-methylpyrazolo[1,5-a]pyridin-3-yl)-9-(1-(methylsulfonyl)piperidin-3-yl)-7H-purin-8(9H)-one] returned an inhibition at 1 µM of over 50%.

Molecule `N#Cc1ccn2ncc(-c3ncc4[nH]c(=O)n([C@H]5CCCN(C(=O)CO)C5)c4n3)c2c1` [Example 10a] showed an inhibition at 1 µM of over 50%.

`CC(C)(O)C(=O)N1CCC[C@H](n2c(=O)[nH]c3cnc(-c4cnn5ccc(C#N)cc45)nc32)C1` [Example 10b] had an inhibition at 1 µM of over 50%.

In the case of `CCC(CC)C(=O)N1CCC[C@H](n2c(=O)[nH]c3cnc(-c4cnn5ccc(C#N)cc45)nc32)C1` [Example 10e], the inhibition at 1 µM is over 50%.

For the molecule `N#Cc1ccn2ncc(-c3ncc4[nH]c(=O)n([C@H]5CCCN(C(=O)CC(F)(F)F)C5)c4n3)c2c1` [Example 10h], the inhibition at 1 µM was over 50%.

Turning to `CCC(=O)N1CCC[C@H](n2c(=O)[nH]c3cnc(-c4cnn5ccc(C)cc45)nc32)C1` [Example 10i], the inhibition at 1 µM is over 50%.

In the case of `COCC(=O)N1CCC[C@H](n2c(=O)n(C(=O)COC)c3cnc(-c4cnn5ccc(C)cc45)nc32)C1` [Example 10k], the inhibition at 1 µM is over 50%.

Take `CC(=O)N1CCC[C@H](n2c(=O)[nH]c3cnc(-c4cnn5ccc(C)cc45)nc32)C1` [Example 10l]: the inhibition at 1 µM is over 50%.

`Cc1ccn2ncc(-c3ncc4[nH]c(=O)n([C@H]5CCCN(C(=O)CO)C5)c4n3)c2c1` [Example 10m]: the inhibition at 1 µM was over 50%.

Consider `N#Cc1ccn2ncc(-c3ncc4[nH]c(=O)n([C@H]5CCCN(C(=O)C6CC6)C5)c4n3)c2c1` [Example 10n], for which the inhibition at 1 µM was over 50%.

As to `CCNC(=O)[C@@H](C)n1c(=O)[nH]c2cnc(-c3cnn4ccc(C#N)cc34)nc21` [Example 15f], the inhibition at 1 µM is over 50%.

The values above are taken from patent US8946257B2, “N-containing heteroaryl derivatives as JAK3 kinase inhibitors” (Vectura Limited, priority 2009, dated 2015).
